In patent US11596165B2, “Compositions, their use, and methods for their formation” (Cambridge Glycoscience Ltd, priority 2018, dated 2023):

Experiments:
[1] = Solubility of cellobiose when combined with xylo-oligosaccharides; format: physicochemical; conditions: 20-320 mg/mL, vortexed 30 seconds, in the presence of half or the same concentration of xylo-oligosaccharides (e.g., at 80 mg/mL)
Method: 1. Solutions/suspensions of cellobiose at concentrations from 20-320 mg/mL were vortexed for 30 seconds alone (FIG. 4, panel a), in the presence of half the concentration of xylo-oligosaccharides (FIG. 4, panel b), or the same concentration of xylo-oligosaccharides (FIG. 4, panel c).

[2] = Hygroscopicity of oligosaccharide powder at 25° C. in 100% humidity; format: physicochemical; conditions: 5 g, 10 hours at 25° C. in 100% humidity
Text: The compositions are to be used in a wide range of foodstuff, cosmetic, or nutraceutical applications, therefore the required hygroscopicity for each application can vary. The aim of this example was to test if hygroscopicity can be adapted by altering the oligosaccharide compositions. • 1. 5 g of oligosaccharide compositions (cellobiose, 4:1 cellobiose:xylo-oligosaccharide, 3:2 cellobiose:xylo-oligosaccharide, 2:3 cellobiose:xylo-oligosaccharide, 1:4 cellobiose:xylo-oligosaccharide, xylo-oligosaccharide) were incubated for 10 hours at 25° C. in 100% humidity. • 2.

water uptake [2]: effectively resisted water uptake
SMILES: O=C[C@H](O)[C@@H](O)[C@H](O[C@@H]1O[C@H](CO)[C@@H](O)[C@H](O)[C@H]1O)[C@H](O)CO [cellobiose]
dissolution of cellobiose [1]: enabled more readily at higher concentrations
